Experimental data taken from ChEMBL document CHEMBL1130569, “pH Dependence of the rate of DNA alkylation for (+)-duocarmycin SA and (+)-CCBI-TMI” (Bioorg Med Chem Lett, 1997).
Several values for one entry are separate records, joined by “and”; a condition that tells them apart may be missing. Equal values may be shown once.

Experiments:
Nucleic Acid [1] = test: Compound was evaluated for relative rate constant for alkylation of the single high affinity site in w794 DNA at pH 7.5.; type: nucleic-acid assay
Nucleic Acid [2] = test: Compound was evaluated for relative rate constant for alkylation of the single high affinity site in w794 DNA at the 7.6 pH points at 25 degrees Centigrade.; type: nucleic-acid assay
Nucleic Acid [3] = test: Compound was evaluated for relative rate constant for alkylation of the single high affinity site in w794 DNA at the 6.1 pH points at 25 degrees Centigrade.; type: nucleic-acid assay
Nucleic Acid [4] = test: Compound was evaluated for pseudo first-order rate constant for alkylation of the single high affinity site in w794 DNA at the 8.0 pH points at 25 degrees Centigrade.; type: nucleic-acid assay
Nucleic Acid [5] = test: Compound was evaluated for pseudo first-order rate constant for alkylation of the single high affinity site in w794 DNA at the 7.6 pH points at 25 degrees Centigrade.; type: nucleic-acid assay
Nucleic Acid [6] = test: Compound was evaluated for relative rate constant for alkylation of the single high affinity site in w794 DNA at pH 7.5 10 mM NaH2PO4-Na2HPO4, 1 mM EDTA buffers.; type: nucleic-acid assay
Nucleic Acid [7] = test: Compound was evaluated for pseudo first-order rate constant for alkylation of the single high affinity site in w794 DNA at the 6.1 pH points at 25 degrees Centigrade.; type: nucleic-acid assay
Nucleic Acid [8] = test: Compound was evaluated for relative rate constant for alkylation of the single high affinity site in w794 DNA at 10 mM NaH2PO4-Na2HPO4 buffers.; type: nucleic-acid assay
Nucleic Acid [9] = test: Compound was evaluated for relative rate constant for alkylation of the single high affinity site in w794 DNA at pH 7.5 using 10 mM Tris buffers.; type: nucleic-acid assay
Nucleic Acid [10] = test: Compound was evaluated for relative rate constant for alkylation of the single high affinity site in w794 DNA at pH 7.5 using 10 mM Tris, 1 mM EDTA buffers; type: nucleic-acid assay
Nucleic Acid [11] = test: Compound was evaluated for relative rate constant for alkylation of the single high affinity site in w794 DNA at the 8.0 pH points at 25 degrees Centigrade.; type: nucleic-acid assay
[12] = Compound was evaluated for first-order rate constant for acid-catalyzed solvolysis at pH 7.6; type: ADME
Nucleic Acid [13] = test: Compound was evaluated for relative rate constant for alkylation of the single high affinity site in w794 DNA at the 6.8 pH points at 25 degrees Centigrade.; type: nucleic-acid assay
Nucleic Acid [14] = test: Compound was evaluated for pseudo first-order rate constant for alkylation of the single high affinity site in w794 DNA at the 6.8 pH points at 25 degrees Centigrade.; type: nucleic-acid assay
[15] = Half-life period for acid-catalyzed solvolysis, was determined at pH 3; type: ADME
Nucleic Acid [16] = test: Compound was evaluated for relative rate constant for alkylation of the single high affinity site in w794 DNA at the 6.6 pH points at 25 degrees Centigrade.; type: nucleic-acid assay
Nucleic Acid [17] = test: Compound was evaluated for relative rate constant for alkylation of the single high affinity site in w794 DNA at the 7.1 pH points at 25 degrees Centigrade.; type: nucleic-acid assay
[18] = Half-life period for DNA alkylation, was determined; type: ADME
Nucleic Acid [19] = test: Compound was evaluated for relative rate constant for alkylation of the single high affinity site in w794 DNA at the 6.0 pH points at 25 degrees Centigrade.; type: nucleic-acid assay
Nucleic Acid [20] = test: Compound was evaluated for relative rate constant for alkylation of the single high affinity site in w794 DNA at the 8.1 pH points at 25 degrees Centigrade.; type: nucleic-acid assay

Question: Which Krel (Nucleic Acid [1]) does the source give for `COc1ccc2c(c1)[C@@]13C[C@@H]1CN(C(=O)c1cc4cc(OC)c(OC)c(OC)c4[nH]1)C3=CC2=O` here?
Answer: 1.9

Question: For `COc1cc2cc(C(=O)N3C[C@H]4C[C@@]45C3=CC(=O)c3ccc(C#N)cc35)[nH]c2c(OC)c1OC`, which Krel (Nucleic Acid [2]) is on record?
Answer: 1.2

Question: What about the Krel (Nucleic Acid [3]) of the same compound?
Answer: 2.55

Question: What about the Krel (Nucleic Acid [1]) of the same compound?
Answer: 2.5

Question: What about the k obs (Nucleic Acid [4]) of the same compound?
Answer: 0.000278 s⁻¹

Question: What about the k obs (Nucleic Acid [5]) of the same compound?
Answer: 0.000336 s⁻¹

Question: And the Krel (Nucleic Acid [6])?
Answer: 1

Question: What about the k obs (Nucleic Acid [7]) of the same compound?
Answer: 0.000706 s⁻¹

Question: What about the Krel (Nucleic Acid [8]) of the same compound?
Answer: 1.05

Question: And the Krel (Nucleic Acid [9])?
Answer: 1.74

Question: And the Krel (Nucleic Acid [10])?
Answer: 1.51

Question: What about the Krel (Nucleic Acid [11]) of the same compound?
Answer: 1

Question: And the k [12]?
Answer: 2.5e-11 s⁻¹

Question: And the Krel (Nucleic Acid [13])?
Answer: 1.5

Question: And the k obs (Nucleic Acid [14])?
Answer: 0.000417 s⁻¹

Question: Which Krel (Nucleic Acid [1]) does the source give for `N#Cc1ccc2c(c1)[C@@]13C[C@@H]1CN(C(=O)c1cc4cc(NC(=O)c5cc6ccccc6[nH]5)ccc4[nH]1)C3=CC2=O` here?
Answer: 2.5

Question: For `COC(=O)c1cc2c([nH]1)C(=O)C=C1N(C(=O)OC(C)(C)C)C[C@H]3C[C@]123`, which T1/2 [15] is on record?
Answer: 177 h

Question: And the k [12]?
Answer: 1.08e-06 s⁻¹

Question: For `COc1cc2cc(C(=O)N3C[C@H]4C[C@@]45C3=CC(=O)c3ccccc35)[nH]c2c(OC)c1OC`, which Krel (Nucleic Acid [1]) is on record?
Answer: 1

Question: For `CC(C)(C)OC(=O)N1C[C@H]2C[C@@]23C1=CC(=O)c1ccc(C#N)cc13`, which k [12] is on record?
Answer: 9.9e-07 s⁻¹

Question: With `COc1ccc2c(c1)[C@@]13C[C@@H]1CN(C(=O)c1cc4cc(NC(=O)c5cc6ccccc6[nH]5)ccc4[nH]1)C3=CC2=O` as the compound, how does the Krel (Nucleic Acid [1]) read?
Answer: 1.4

Question: With `COc1ccc2c(c1)[C@@]13C[C@@H]1CN(C(=O)OC(C)(C)C)C3=CC2=O` as the compound, how does the k [12] read?
Answer: 1.75e-06 s⁻¹

Question: With `COC(=O)c1cc2c([nH]1)C(=O)C=C1N(C(=O)c3cc4cc(OC)c(OC)c(OC)c4[nH]3)C[C@H]3C[C@]123` [DUOCARMYCIN] as the compound, how does the Krel (Nucleic Acid [16]) read?
Answer: 1.32

Question: And the Krel (Nucleic Acid [2])?
Answer: 1.05

Question: What about the Krel (Nucleic Acid [1]) of the same compound?
Answer: 0.9

Question: And the Krel (Nucleic Acid [17])?
Answer: 1.12

Question: What about the k obs (Nucleic Acid [4]) of the same compound?
Answer: 0.000158 s⁻¹ and 0.00015 s⁻¹

Question: What about the k obs (Nucleic Acid [5]) of the same compound?
Answer: 0.000169 s⁻¹

Question: And the k obs (Nucleic Acid [7])?
Answer: 0.000283 s⁻¹

Question: And the T1/2 [18]?
Answer: 1.2 years

Question: What about the Krel (Nucleic Acid [19]) of the same compound?
Answer: 1.89

Question: And the k [12]?
Answer: 2.7e-11 s⁻¹

Question: What about the Krel (Nucleic Acid [20]) of the same compound?
Answer: 1

Question: What about the k obs (Nucleic Acid [14]) of the same compound?
Answer: 0.000199 s⁻¹

Question: With `O=C(Nc1ccc2[nH]c(C(=O)N3C[C@H]4C[C@@]45C3=CC(=O)c3ccccc35)cc2c1)c1cc2ccccc2[nH]1` as the compound, how does the Krel (Nucleic Acid [1]) read?
Answer: 1

Question: With `CC(C)(C)OC(=O)N1C[C@H]2C[C@@]23C1=CC(=O)c1ccccc13` as the compound, how does the k [12] read?
Answer: 1.45e-06 s⁻¹
